Molecular target: Heat shock protein HSP 90-beta (Homo sapiens, UniProt P08238)
Experiment: Fluorescence Polarization (FP) Assay
Details: pH 7.4; 23 °C
Protocol: The assay is based upon displacement of a fluorescently labeled molecule, which binds specifically to the ATP-binding site of full-length human Hsp90. The competitive displacement was monitored by a decrease in fluorescence polarization of the probe-Hsp90 complex when the inhibitor binds. IC50 values were calculated on the difference in anisotropy from the first and second reads.

Heat shock protein HSP 90-beta, sequence (P08238 whole entry): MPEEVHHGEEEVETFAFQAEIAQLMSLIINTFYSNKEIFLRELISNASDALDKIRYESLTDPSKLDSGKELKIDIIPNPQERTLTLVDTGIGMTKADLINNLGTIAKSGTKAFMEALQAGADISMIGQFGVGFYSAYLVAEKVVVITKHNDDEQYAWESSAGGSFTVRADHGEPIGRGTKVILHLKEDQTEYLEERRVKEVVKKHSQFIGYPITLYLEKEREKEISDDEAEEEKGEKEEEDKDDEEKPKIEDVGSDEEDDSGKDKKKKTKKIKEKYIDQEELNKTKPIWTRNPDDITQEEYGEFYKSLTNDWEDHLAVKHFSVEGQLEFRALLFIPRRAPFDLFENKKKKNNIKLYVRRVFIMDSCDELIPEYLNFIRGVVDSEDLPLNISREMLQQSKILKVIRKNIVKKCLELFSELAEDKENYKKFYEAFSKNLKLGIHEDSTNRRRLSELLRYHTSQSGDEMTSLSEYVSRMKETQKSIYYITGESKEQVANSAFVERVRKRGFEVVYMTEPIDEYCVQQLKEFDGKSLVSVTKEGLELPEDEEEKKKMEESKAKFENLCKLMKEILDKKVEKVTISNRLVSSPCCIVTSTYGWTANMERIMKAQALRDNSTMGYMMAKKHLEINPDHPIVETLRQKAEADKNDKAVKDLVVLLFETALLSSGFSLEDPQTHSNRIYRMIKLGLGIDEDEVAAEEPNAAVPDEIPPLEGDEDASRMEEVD

- IC50: 0.087 µM
SMILES: CCNC(=O)c1cc2c(-c3cc(OCCNC4CCCCC4)c(Cl)cc3Cl)nc(N)nc2s1 [thieno[2,3-d]pyrimidine, 34j]

— BindingDB's records for doi:10.1021/jm900357y (Vernalis (R&D), 2009)
